Tests used:
[1] = Pharmacokinetic evaluation after intravenous or gavage administration to rats; format: in vivo, SD rats; conditions: SD, rat, in vivo
Procedure: (§1) The compounds disclosed herein were administered in form of a saline solution containing 5% DMSO, 5% Kolliphor HS 15, 2% (2% HCl) and 88% Saline, or a solution containing 10% DMSO, 10% Kolliphor HS 15 and 80% physiological saline to the subject animals. For intravenous administration, the animals were administered with a dose of 1 mg/kg or 2 mg/kg, and vein blood samples (0.3 mL) were collected at the time points of 0.083, 0.25, 0.5, 1.0, 2.0, 4.0, 6.0, 8.0 and 24 h after drug administration; plasma samples were collected by centrifugation of the vein blood samples at 3000 rpm or 4000 rpm for 10 minutes, and stored at −20° C. or −70° C. For gavage administration, the animals were administered with a dose of 2.5 mg/kg or 5 mg/kg, and vein blood samples (0.3 mL) were collected at the time points of 0.25, 0.5, 1.0, 2.0, 4.0, 6.0, 8.0 and 24 h after drug administration; plasma samples were collected by centrifugation at 3000 rpm or 4000 rpm for 10 minutes, and stored at −20° C. or −70° C. The positive control is suvorexant.
(§2) The above plasma samples were analyzed by the LC-MS/MS system.

[2] = Stability in human liver microsome; format: in vitro ADME; conditions: human, microsomes, pH 4
Procedure: A mixture of the compound of the invention and human liver microsome in 0.1 M potassium phosphate buffer (containing 1.0 mM EDTA, pH=4) was incubated at 37° C., the sample concentrations at different incubation times were measured, and then the half life of the compound was calculated by plotting “the relative amount of the compound” against “incubation time” by using software GraphPad Prism 5.01, and intrinsic clearance was calculated. The experiment system shown as table 5:
The sample was analyzed by LC/MS/MS (ESI […] source and waters xbridge C18 EB-A-1420 chromatographic column were adopted), the mobile phases were an aqueous solution with 2 mM ammonium formate and 0.1% formic acid (mobile phase A) and an methanol solution with 2 mM ammonium formate and 0.1% formic acid (mobile phase B), the flow rate was 0.4 mL/min; the column temperature was 40° C. The ratio of the sample peak area to the internal standard peak area was obtained through LC/MS/MS analysis, the content of the compound at 0 time point was as 100%, the relative content of the compound at each time point was calculated. The half life of the compound was calculated by plotting “the relative amount of the compound” against “incubation time”, and intrinsic clearance was calculated.
The positive control is suvorexant.

hERG channel = target: T1, hERG channel (Homo sapiens, UniProt Q12809); test: hERG fluorescence polarization assay (potential of inducing QT interval prolongation); format: binding
T1 construct: purchased Invitrogen
Procedure: The potential of the compound disclosed herein inducing QT interval prolongation was evaluated by detecting if the compound would block the hERG channel. The specific test method is as follows:
Precisely weighed compound disclosed herein was dissolved in DMSO to formulate a solution at the highest concentration of 10.0 mM, and then the solution was diluted to a initial concentration of 120.0 μM with hERG FP Assay Buffer (Invitrogen); the hERG Tracer Red stock solution (Invitrogen) and the positive control E-4031 stock solution (Invitrogen) were respectively diluted to initial concentrations of 4.0 nM and 120.0 μM with hERG FP Assay Buffer (Invitrogen). […]
The above-mentioned solution of the compound disclosed herein and E-4031 at the initial concentration of 120 μM were respectively diluted with hERG FP Assay Buffer 5-fold in series to provide 8 concentration of 120.0 μM, 24.0 μM, 4.8 μM, 960.0 nM, 192.0 nM, 38.4 nM, 7.7 nM and 1.5 nM. […] After that, the 384-well plate was put into an oscillator (PHMP-4, Grant-sio), in 25° C., 250 rpm, to incubate for 4 hours, and the fluorescence polarization values were measured by multi-function microplate reader (PHERAStarFS, BMG LABTECH) and corrected with the minimum and maximum fluorescence polarization values of E-4031, and the IC50 of the compound disclosed herein was calculated by GraphPad software. […]

[3] = Pharmacokinetic evaluation after intravenous or gavage administration to dogs; format: in vivo, Beagle dogs; conditions: beagle, dog, in vivo
Procedure: as §1, §2

T1 sequence (Q12809 whole entry): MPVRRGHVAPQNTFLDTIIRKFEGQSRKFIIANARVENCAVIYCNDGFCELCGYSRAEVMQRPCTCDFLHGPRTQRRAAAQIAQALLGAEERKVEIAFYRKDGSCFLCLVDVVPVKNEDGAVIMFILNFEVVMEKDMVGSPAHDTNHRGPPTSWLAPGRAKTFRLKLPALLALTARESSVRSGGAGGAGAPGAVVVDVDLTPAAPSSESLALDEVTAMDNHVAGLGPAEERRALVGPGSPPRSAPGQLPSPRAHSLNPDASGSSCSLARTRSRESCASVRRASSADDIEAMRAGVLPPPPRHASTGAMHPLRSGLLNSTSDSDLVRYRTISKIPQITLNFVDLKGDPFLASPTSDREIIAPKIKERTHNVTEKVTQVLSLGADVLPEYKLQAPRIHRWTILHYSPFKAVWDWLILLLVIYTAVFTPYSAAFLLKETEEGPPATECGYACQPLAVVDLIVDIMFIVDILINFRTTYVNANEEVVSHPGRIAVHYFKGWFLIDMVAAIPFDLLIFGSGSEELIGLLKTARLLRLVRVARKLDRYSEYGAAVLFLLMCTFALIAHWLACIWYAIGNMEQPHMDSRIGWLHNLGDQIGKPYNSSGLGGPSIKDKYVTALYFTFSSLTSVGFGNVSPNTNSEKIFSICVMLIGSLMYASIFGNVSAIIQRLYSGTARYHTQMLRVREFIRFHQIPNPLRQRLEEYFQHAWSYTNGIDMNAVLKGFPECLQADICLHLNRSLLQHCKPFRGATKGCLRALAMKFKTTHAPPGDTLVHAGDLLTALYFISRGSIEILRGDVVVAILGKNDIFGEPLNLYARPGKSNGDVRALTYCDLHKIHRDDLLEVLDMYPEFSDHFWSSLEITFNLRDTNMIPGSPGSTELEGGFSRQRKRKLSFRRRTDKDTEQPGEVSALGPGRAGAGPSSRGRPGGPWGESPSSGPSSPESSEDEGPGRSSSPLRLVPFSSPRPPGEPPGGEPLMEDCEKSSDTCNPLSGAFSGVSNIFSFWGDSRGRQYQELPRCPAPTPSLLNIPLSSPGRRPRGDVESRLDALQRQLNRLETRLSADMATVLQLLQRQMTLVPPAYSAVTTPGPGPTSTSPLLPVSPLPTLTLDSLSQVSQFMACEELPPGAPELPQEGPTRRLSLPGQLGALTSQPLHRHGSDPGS

With `Cc1ccc(-n2nccn2)c(C(=O)N2CC3CN(c4nc5cc(Cl)ccc5o4)CC3C2)c1` (centres unmarked) [Example 1, (5-(5-chlorobenzo[d]oxazol-2-yl)hexahydropyrrolo[3,4-c]pyrrol-2(1H)-yl)(5-methyl-2-(2H-1,2,3-triazol-2-yl)phenyl)methanone] the AUC(0-inf) ([1]; iv, 1 mg/kg) was 417 ng·h/mL, the AUC(0-t) ([1]; iv, 1 mg/kg) was 415 ng·h/mL and the Cmax ([1]; iv, 1 mg/kg) was 646 ng/mL. For the same molecule, the MRT inf ([1]; iv, 1 mg/kg) was 0.638 h, the Vd ([1]; iv, 1 mg/kg) was 1.53 L/kg and the clearance ([1]; iv, 1 mg/kg) was 40 mL/min/kg. For the same molecule, the half-life ([1]; iv, 1 mg/kg) was 0.676 h, the AUC(0-inf) ([1]; po, 2.5 mg/kg) was 659 ng·h/mL and the AUC(0-t) ([1]; po, 2.5 mg/kg) was 482 ng·h/mL. For the same molecule, the Cmax ([1]; po, 2.5 mg/kg) was 181 ng/mL, the F ([1]; po, 2.5 mg/kg) was 50.1% and the MRT inf ([1]; po, 2.5 mg/kg) was 3.03 h. For the same molecule, the half-life ([1]; po, 2.5 mg/kg) was 2.21 h, the CLint scaled at 1 μM [2] was 35.1 mL/min/kg and the half-life at 1 μM [2] was 0.825 h. The IC50 (hERG channel) was 3.28 µM, the AUC(0-inf) ([3]; iv, 1 mg/kg) was 2710 ng·h/mL and the AUC(0-t) ([3]; iv, 1 mg/kg) was 2150 ng·h/mL. For the same molecule, the Cmax ([3]; iv, 1 mg/kg) was 821 ng/mL, the MRT inf ([3]; iv, 1 mg/kg) was 4.97 h and the Vd ([3]; iv, 1 mg/kg) was 1.83 L/kg. It also gave a clearance ([3]; iv, 1 mg/kg) of 6.14 mL/min/kg, a half-life ([3]; iv, 1 mg/kg) of 3.73 h and an AUC(0-inf) ([3]; po, 5 mg/kg) of 16300 ng·h/mL. The AUC(0-t) ([3]; po, 5 mg/kg) was 15900 ng·h/mL, the Cmax ([3]; po, 5 mg/kg) was 1410 ng/mL and the F ([3]; po, 5 mg/kg) was 147.6%. It also gave an MRT inf ([3]; po, 5 mg/kg) of 6.84 h and a half-life ([3]; po, 5 mg/kg) of 4.41 h.

Reference: US10370380B2, “Octahydropyrrolo[3,4-c]pyrrole derivatives and uses thereof” (Sunshine Lake Pharma Co., Ltd., priority 2015, dated 2019)
